Test results from ChEMBL document CHEMBL4229332, “Novel multi-target azinesulfonamides of cyclic amine derivatives as potential antipsychotics with pro-social and pro-cognitive effects” (Eur J Med Chem, 2018).

Tests used:
Cavia porcellus [1] = assay: Cardiotoxicity in guinea pig assessed as effect on frequence of heart rate at 5 mg/kg, ip measured after 70 mins by ECG analysis (reference value: 262 to 296 /min); type: toxicity, organism-based; settings: in vivo
Cavia porcellus [2] = assay: Cardiotoxicity in guinea pig assessed as effect on QTc interval time at 5 mg/kg, ip measured after 20 mins by ECG analysis (reference value: […] to […] milliseconds); type: toxicity, organism-based; settings: in vivo
Cavia porcellus [3] = assay: Cardiotoxicity in guinea pig assessed as effect on PR interval time at 5 mg/kg, ip measured after 30 mins by ECG analysis (reference value: 58.8 to 63.8 milliseconds); type: toxicity, organism-based; settings: in vivo, 0.5 h
Cavia porcellus [4] = assay: Cardiotoxicity in guinea pig assessed as effect on RR interval time at 5 mg/kg, ip measured after 10 mins by ECG analysis (reference value: 208.4 to 238.4 milliseconds); type: toxicity, organism-based; settings: in vivo
[5] = biological target: T1, 5-hydroxytryptamine receptor 1A (Homo sapiens, UniProt P08908); assay: biochemical
T1 sequence (P08908 whole entry): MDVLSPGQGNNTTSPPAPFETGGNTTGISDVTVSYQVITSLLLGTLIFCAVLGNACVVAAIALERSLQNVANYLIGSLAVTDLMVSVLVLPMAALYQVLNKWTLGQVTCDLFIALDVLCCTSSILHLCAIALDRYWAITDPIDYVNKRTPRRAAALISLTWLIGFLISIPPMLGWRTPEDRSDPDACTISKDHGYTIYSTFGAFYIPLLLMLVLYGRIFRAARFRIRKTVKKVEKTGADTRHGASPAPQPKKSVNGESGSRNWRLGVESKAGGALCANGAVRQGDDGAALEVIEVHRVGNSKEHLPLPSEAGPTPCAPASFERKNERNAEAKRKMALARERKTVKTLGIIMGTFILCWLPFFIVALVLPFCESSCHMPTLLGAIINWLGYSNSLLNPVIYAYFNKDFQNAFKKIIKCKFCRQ
Description: Displacement of [3H]-8-OH-DPAT from human 5-HT1AR expressed in HEK293 cell membranes after 1 hr by microbeta counting method

[6] = Ratio of drug level in brain to plasma in Wistar rat at 3 mg/kg, ip measured after 30 mins by LC-MS/MS analysis; type: ADME, organism-based; settings: read-out: BPR
Cavia porcellus [7] = assay: Cardiotoxicity in guinea pig assessed as effect on QTc interval time at 5 mg/kg, ip measured after 40 mins by ECG analysis (reference value: […] to […] milliseconds); type: toxicity, organism-based; settings: in vivo
Cavia porcellus [8] = assay: Cardiotoxicity in guinea pig assessed as effect on QRS interval time at 5 mg/kg, ip measured after 80 mins by ECG analysis (reference value: 26.2 to 31.6 milliseconds); type: toxicity, organism-based; settings: in vivo
Cavia porcellus [9] = assay: Cardiotoxicity in guinea pig assessed as effect on frequence of heart rate at 5 mg/kg, ip measured after 40 mins by ECG analysis (reference value: 262 to 296 /min); type: toxicity, organism-based; settings: in vivo
[10] = Toxicity in ip dosed Sprague-Dawley rat assessed as sedation pretreated for 60 mins followed by PCP addition measured for 30 mins starting 15 min after rat reintroduction to auto-tracks; type: organism-based; settings: in vivo
[11] = Drug level in Wistar rat plasma at 3 mg/kg, ip measured after 60 mins by LC-MS/MS analysis; type: ADME, organism-based
Cavia porcellus [12] = assay: Cardiotoxicity in guinea pig assessed as effect on QRS interval time at 5 mg/kg, ip measured after 40 mins by ECG analysis (reference value: 26.2 to 31.6 milliseconds); type: toxicity, organism-based; settings: in vivo
Cavia porcellus [13] = assay: Cardiotoxicity in guinea pig assessed as effect on RR interval time at 5 mg/kg, ip measured after 30 mins by ECG analysis (reference value: 208.4 to 238.4 milliseconds); type: toxicity, organism-based; settings: in vivo, 0.5 h
Cavia porcellus [14] = assay: Cardiotoxicity in guinea pig assessed as effect on PR interval time at 5 mg/kg, ip measured after 40 mins by ECG analysis (reference value: 58.8 to 63.8 milliseconds); type: toxicity, organism-based; settings: in vivo
Cavia porcellus [15] = assay: Cardiotoxicity in guinea pig assessed as effect on PR interval time at 5 mg/kg, ip measured after 80 mins by ECG analysis (reference value: 58.8 to 63.8 milliseconds); type: toxicity, organism-based; settings: in vivo
Cavia porcellus [16] = assay: Cardiotoxicity in guinea pig assessed as effect on frequence of heart rate at 5 mg/kg, ip measured after 30 mins by ECG analysis (reference value: 262 to 296 /min); type: toxicity, organism-based; settings: in vivo, 0.5 h
Cavia porcellus [17] = assay: Cardiotoxicity in guinea pig assessed as effect on RR interval time at 5 mg/kg, ip measured after 20 mins by ECG analysis (reference value: 208.4 to 238.4 milliseconds); type: toxicity, organism-based; settings: in vivo
Cavia porcellus [18] = assay: Cardiotoxicity in guinea pig assessed as effect on PR interval time at 5 mg/kg, ip measured after 60 mins by ECG analysis (reference value: 58.8 to 63.8 milliseconds); type: toxicity, organism-based; settings: in vivo, 1 h
[19] = Ratio of drug level in brain to plasma in Wistar rat at 3 mg/kg, ip measured after 60 mins by LC-MS/MS analysis; type: ADME, organism-based; settings: read-out: BPR
Cytochrome P450 2C9 = Cytochrome P450 2C9 (Homo sapiens, UniProt P11712); assay: Inhibition of human supersome CYP2C9 using diclofenac as substrate assessed as diclofenac 4'-hydroxylation after 30 mins by HPLC-UV detection; type: ADME
Cytochrome P450 2C9, sequence (P11712 whole entry): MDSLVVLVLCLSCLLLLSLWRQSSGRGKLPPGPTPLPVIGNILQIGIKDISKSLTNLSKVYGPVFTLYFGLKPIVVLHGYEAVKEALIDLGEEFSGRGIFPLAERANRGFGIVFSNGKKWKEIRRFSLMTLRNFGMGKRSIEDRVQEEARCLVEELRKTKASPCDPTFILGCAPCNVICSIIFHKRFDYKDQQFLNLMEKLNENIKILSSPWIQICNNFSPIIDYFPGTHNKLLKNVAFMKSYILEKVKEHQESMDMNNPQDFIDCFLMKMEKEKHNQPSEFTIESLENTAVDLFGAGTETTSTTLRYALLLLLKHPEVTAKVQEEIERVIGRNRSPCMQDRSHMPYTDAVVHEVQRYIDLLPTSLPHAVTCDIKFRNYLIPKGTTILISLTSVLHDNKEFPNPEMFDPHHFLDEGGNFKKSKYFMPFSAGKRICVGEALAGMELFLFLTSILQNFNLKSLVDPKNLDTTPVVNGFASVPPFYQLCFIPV

[20] = Drug level in Wistar rat brain at 3 mg/kg, ip measured after 30 mins by LC-MS/MS analysis; type: ADME, organism-based; settings: read-out: Drug uptake
[21] = Drug level in Wistar rat brain at 3 mg/kg, ip measured after 15 mins by LC-MS/MS analysis; type: ADME, organism-based; settings: read-out: Drug uptake
Cavia porcellus [22] = assay: Cardiotoxicity in guinea pig assessed as effect on PR interval time at 5 mg/kg, ip measured after 10 mins by ECG analysis (reference value: 58.8 to 63.8 milliseconds); type: toxicity, organism-based; settings: in vivo
Cavia porcellus [23] = assay: Cardiotoxicity in guinea pig assessed as effect on PR interval time at 5 mg/kg, ip measured after 70 mins by ECG analysis (reference value: 58.8 to 63.8 milliseconds); type: toxicity, organism-based; settings: in vivo
[24] = Drug level in Wistar rat plasma at 3 mg/kg, ip measured after 30 mins by LC-MS/MS analysis; type: ADME, organism-based
[25] = Intrinsic clearance in rat liver microsomes at 20 uM at 37 degC measured after 120 mins in presence of NADPH-regenerating system by UPLC-MS analysis; type: ADME, microsome; settings: read-out: CLH
Cavia porcellus [26] = assay: Cardiotoxicity in guinea pig assessed as effect on QRS interval time at 5 mg/kg, ip measured after 60 mins by ECG analysis (reference value: 26.2 to 31.6 milliseconds); type: toxicity, organism-based; settings: in vivo, 1 h
Cavia porcellus [27] = assay: Cardiotoxicity in guinea pig assessed as effect on frequence of heart rate at 5 mg/kg, ip measured after 80 mins by ECG analysis (reference value: 262 to 296 /min); type: toxicity, organism-based; settings: in vivo
Cytochrome P450 2D6 = Cytochrome P450 2D6 (Homo sapiens, UniProt P10635); assay: Inhibition of human supersome CYP2D6 using bufuralol as substrate assessed as bufuralol 1'-hydroxylation after 30 mins by HPLC-UV detection; type: ADME
Cytochrome P450 2D6, sequence (P10635 whole entry): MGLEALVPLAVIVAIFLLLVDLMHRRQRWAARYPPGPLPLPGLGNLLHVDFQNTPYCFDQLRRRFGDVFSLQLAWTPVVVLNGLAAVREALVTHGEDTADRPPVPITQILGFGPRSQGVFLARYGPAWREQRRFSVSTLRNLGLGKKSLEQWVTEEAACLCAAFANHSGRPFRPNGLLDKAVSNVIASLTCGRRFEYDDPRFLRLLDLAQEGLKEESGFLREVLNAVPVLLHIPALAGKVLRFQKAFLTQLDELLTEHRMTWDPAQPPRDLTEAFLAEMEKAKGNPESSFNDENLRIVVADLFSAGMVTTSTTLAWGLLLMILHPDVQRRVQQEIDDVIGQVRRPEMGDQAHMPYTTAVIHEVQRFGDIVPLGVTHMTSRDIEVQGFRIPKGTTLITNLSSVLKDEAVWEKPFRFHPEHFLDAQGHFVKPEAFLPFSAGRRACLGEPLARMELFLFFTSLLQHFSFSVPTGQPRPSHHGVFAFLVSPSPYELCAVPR

[28] = Ratio of drug level in brain to plasma in Wistar rat at 3 mg/kg, ip measured after 15 mins by LC-MS/MS analysis; type: ADME, organism-based; settings: read-out: BPR
Cavia porcellus [29] = assay: Cardiotoxicity in guinea pig assessed as effect on RR interval time at 5 mg/kg, ip measured after 50 mins by ECG analysis (reference value: 208.4 to 238.4 milliseconds); type: toxicity, organism-based; settings: in vivo

O=S(=O)(c1cncc2ccccc12)N1CCC[C@H]1CCN1CCN(c2cccc3sccc23)CC1
Activity (Cavia porcellus [1]): 271 min⁻¹
Time (Cavia porcellus [2]): 265 ms
Time (Cavia porcellus [3]): 62.8 ms
Time (Cavia porcellus [4]): 236.6 ms
Ki [5]: 0.018 µM
Kp at 0.5 h [6]: 2.44
Time (Cavia porcellus [7]): 263.4 ms
Time (Cavia porcellus [8]): 32 ms
Activity (Cavia porcellus [9]): 263 min⁻¹
MTD at 0.5 h [10]: 3 mg/kg
concentration at 1 h [11]: 45 nM
Time (Cavia porcellus [12]): 31.2 ms
Time (Cavia porcellus [13]): 235.2 ms
Time (Cavia porcellus [14]): 63.4 ms
Time (Cavia porcellus [15]): 63.8 ms
Activity (Cavia porcellus [16]): 264 min⁻¹
Time (Cavia porcellus [17]): 231.2 ms
Time (Cavia porcellus [18]): 63.4 ms
Kp at 1 h [19]: 2.13
IC50 (Cytochrome P450 2C9): > 100 µM
concentration at 0.5 h [20]: 245 nM
concentration at 0.25 h [21]: 317 nM
Time (Cavia porcellus [22]): 62.8 ms
Time (Cavia porcellus [23]): 64.2 ms
concentration at 0.5 h [24]: 105 nM
microsomal CLint at 20 µM [25]: 2.81 µL/min/mg
Time (Cavia porcellus [26]): 30.4 ms
Activity (Cavia porcellus [27]): 286 min⁻¹
IC50 (Cytochrome P450 2D6): > 100 µM
Kp at 0.25 h [28]: 1.69
Time (Cavia porcellus [29]): 220 ms

O=S(=O)(c1cncc2ccccc12)N1CCC[C@H]1CCN1CCN(c2nsc3ccccc23)CC1
Activity (Cavia porcellus [1]): 287 min⁻¹
Time (Cavia porcellus [2]): 269.6 ms
Time (Cavia porcellus [3]): 58.8 ms
Time (Cavia porcellus [4]): 202 ms
Ki [5]: 0.037 µM
Kp at 0.5 h [6]: 1.33
Time (Cavia porcellus [7]): 274.2 ms
Time (Cavia porcellus [8]): 26 ms
Activity (Cavia porcellus [9]): 288 min⁻¹
MTD at 0.5 h [10]: 3 mg/kg
concentration at 1 h [11]: 50.2 nM
Time (Cavia porcellus [12]): 27.6 ms
Time (Cavia porcellus [13]): 212.6 ms
Time (Cavia porcellus [14]): 61 ms
Time (Cavia porcellus [15]): 61.8 ms
Activity (Cavia porcellus [16]): 287 min⁻¹
Time (Cavia porcellus [17]): 206 ms
Time (Cavia porcellus [18]): 63.2 ms
Kp at 1 h [19]: 0.96
IC50 (Cytochrome P450 2C9): 100 µM
concentration at 0.5 h [20]: 177 nM
concentration at 0.25 h [21]: 153 nM
Time (Cavia porcellus [22]): 59 ms
Time (Cavia porcellus [23]): 60.8 ms
concentration at 0.5 h [24]: 177 nM
microsomal CLint at 20 µM [25]: 1.73 µL/min/mg
Time (Cavia porcellus [26]): 27.2 ms
Activity (Cavia porcellus [27]): 284 min⁻¹
IC50 (Cytochrome P450 2D6): > 100 µM
Kp at 0.25 h [28]: 0.59
Time (Cavia porcellus [29]): 210.6 ms
